In patent publication US20240092784A1, “CONDENSED HETEROCYCLIC COMPOUND” (NISSAN CHEMICAL CORPORATION, priority 2020, published 2024):

Biological target: human SPR (Homo sapiens (Human), UniProt P35270)
Assay: Evaluation Example 1: Measurement of human SPR inhibitory activity (sepiapterin absorbance at 420 nm)
Format: biochemical
Settings: 240 minutes at room temperature
Description: Human SPR was prepared as described below. The full-length human SPR (1-261) cDNA was purchased from Eurofins Genomics as an artificially synthesized plasmid containing a DNA sequence optimized for the E. coli expression system so that the sequence of the expressed protein after transcription and translation matches the sequence described in UniprotKB (P35270).
Linearized insert and vector were prepared by PCR using primers designed for amplification of human SPR cDNA and primers designed to contain the thrombin recognition sequence of pET28a (Novagen) and a polyhistidine tag. Cloning was performed using In-Fusion (registered trademark) HD Cloning Kit (TaKaRa) to thereby construct a human SPR expression plasmid. The resultant human SPR expression plasmid was transformed into BL21 (DE3) competent cells (INVITROGEN).
The cells were inoculated into LB medium (1% triptone, 0.5% yeast extract, 1% sodium chloride) containing […] of kanamycin, and then precultured at 37° C. overnight. The precultured cells were inoculated into TB medium (1.2% triptone, 2.4% yeast extract, 9.4% dipotassium hydrogen phosphate, 2.2% potassium dihydrogen phosphate, 0.8% glycerin) containing […] of kanamycin, and the cultured at 37° C., to thereby induce SPR expression with 0.5 mM IPTG for four hours. After the induction, the cells were collected by centrifugation at 6,000 G for 30 minutes and washed with PBS, and the washing was discarded. The washed cells were suspended in buffer solution A (20 mM MES, pH 6.5, 100 mM sodium chloride, 1 mM DTT, 5 mM imidazole). Subsequently, the cell suspension was subjected to ultrasonic treatment to thereby homogenize the cells. The cell homogenate was clarified by centrifugation at 30,000 G for 60 minutes and then filtered with a […]. The filtrate was allowed to pass through HisTrapFF 5 mL column (GE Healthcare). The resin was washed with buffer A, and then gradient elution was performed with buffer B (20 mM MES, pH 6.5, 100 mM sodium chloride, 1 mM DTT, 500 mM imidazole). Thrombin was added to a fraction containing the SPR protein, and the mixture was dialyzed in buffer A overnight, to thereby cleave the tag. After removal of the thrombin by with Benzamidine Sepharose 4 FF (GE Healthcare), the resultant product was allowed to pass through the HisTrapFF 5 mL column, to thereby remove the tag, followed by concentration with Amicon Ultra 10,000 NMWL (Merck Millipore). The concentrate was purified by gel filtration using HiLoad 16/60 Superdex 75 pg (GE Healthcare) equilibrated with buffer C (20 mM MES, pH 6.5, 100 mM sodium chloride, 1 mM DTT). The fraction containing SPR protein was concentrated and then cryopreserved at −80° C.
Human SPR inhibitory activity was measured by using a 384-well low adsorption clear plate (Greiner) with buffer D containing 100 mM Tris-HCl (pH 7.5) (Thermo Fisher Scientific) and 0.01% bovine serum albumin (Sigma). A compound was diluted with DMSO to a concentration of 1 mM, and a 1 μL aliquot of the preparation was diluted with 250 μL of buffer D. The thus-diluted compound was dispensed into the 384-well plate at […]. Thereafter, human SPR was diluted with buffer D to 200 ng/mL and then dispensed into the 384-well plate at 20 μL/well. Subsequently, 40 μL of ultrapure water containing 120 μM Sepiapterin (WuXi AppTec) and 120 μM NADPH (Nacalai) was added to each well, and mixed with a vortex mixer, to thereby initiate the reaction. The reaction mixture was incubated at room temperature for 240 minutes, and the reaction was terminated by addition of 10 μL of ultrapure water containing 2% formic acid (Nacalai). In order to determine the amount of sepiapterin after termination of the reaction, the absorbance at 420 nm was measured by applying the 384-well plate to EnSpire multimode plate reader (Perkin Elmer). The percent inhibition (%) of human SPR by the test compound was calculated by the following formula. […]

Chain of human SPR (P35270 whole entry): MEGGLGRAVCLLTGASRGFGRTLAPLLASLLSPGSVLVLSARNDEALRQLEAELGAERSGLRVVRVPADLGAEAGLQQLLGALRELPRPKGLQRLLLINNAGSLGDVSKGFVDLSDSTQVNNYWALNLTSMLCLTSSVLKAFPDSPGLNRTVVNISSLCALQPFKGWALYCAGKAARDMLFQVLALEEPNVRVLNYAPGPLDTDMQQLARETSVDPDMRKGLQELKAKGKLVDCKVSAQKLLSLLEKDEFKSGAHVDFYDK

| SMILES | IC50 [nM] |
| --- | --- |
| CCOC(=O)c1cc2n(CC(C)(C)C)c(=O)c(C(=O)NC3CC3)c(O)n2n1 [Synthesis Example 1, Ethyl 6-(cyclopropylcarbamoyl)-7-hydroxy-4-neopentyl-5-oxo-4,5-dihydropyrazolo[1,5-a]pyrimidine-2-carboxylate] | < 1000 |
| CC(C)(C)Cn1c(=O)c(C(=O)NC2CC2)c(O)n2nc(C(=O)O)cc12 [Synthesis Example 2, 6-(Cyclopropylcarbamoyl)-7-hydroxy-4-neopentyl-5-oxo-4,5-dihydropyrazolo[1,5-a]pyrimidine-2-carboxylic acid] | < 1000 |
| CC(C)(C)Cn1c(=O)c(C(=O)NC2CC2)c(O)n2nc(NC(=O)OC(C)(C)C)cc12 [Synthesis Example 3, Tert-butyl (6-(cyclopropylcarbamoyl)-7-hydroxy-4-neopentyl-5-oxo-4,5-dihydropyrazolo[1,5-a]pyrimidin-2-yl)carbamate] | < 1000 |
| CCOC(=O)c1cnn2c(O)c(C(=O)NC3CC3)c(=O)n(CC(C)C)c12 [Synthesis Example 5, Ethyl 6-(cyclopropylcarbamoyl)-7-hydroxy-4-isobutyl-5-oxo-4,5-dihydropyrazolo[1,5-a]pyrimidine-3-carboxylate] | < 1000 |
| CC(C)Cn1c(=O)c(C(=O)NC2CC2)c(O)n2ncc(C=O)c12 [Synthesis Example 7, N-Cyclopropyl-3-formyl-7-hydroxy-4-isobutyl-5-oxo-4,5-dihydropyrazolo[1,5-a]pyrimidine-6-carboxamide] | < 1000 |
| CC(C)Cn1c(=O)c(C(=O)NC2CC2)c(O)n2ncc(/C=C/C(=O)O)c12 [Synthesis Example 9, (E)-3-(6-(Cyclopropylcarbamoyl)-7-hydroxy-4-isobutyl-5-oxo-4,5-dihydropyrazolo[1,5-a]pyrimidin-3-yl)acrylic acid] | < 1000 |
| CC(C)(C)Cn1c(=O)c(C(=O)NC2CC2)c(O)n2nc(Br)cc12 [Synthesis Example 11, 2-Bromo-N-cyclopropyl-7-hydroxy-4-neopentyl-5-oxo-4,5-dihydropyrazolo[1,5-a]pyrimidine-6-carboxamide] | < 1000 |
| COC(=O)c1cnc(Nc2cc3n(CC(C)(C)C)c(=O)c(C(=O)NC4CC4)c(O)n3n2)cn1 [Synthesis Example 19, Methyl 5-((6-(cyclopropylcarbamoyl)-7-hydroxy-4-neopentyl-5-oxo-4,5-dihydropyrazolo[1,5-a]pyrimidin-2-yl)amino)pyrazine-2-carboxylate] | < 1000 |
| CC(C)(C)Cn1c(=O)c(C(=O)NC2CC2)c(O)n2nc(Nc3cnc(C(=O)O)cn3)cc12 [Synthesis Example 20, 5-((6-(Cyclopropylcarbamoyl)-7-hydroxy-4-neopentyl-5-oxo-4,5-dihydropyrazolo[1,5-a]pyrimidin-2-yl)amino)pyrazine-2-carboxylic acid] | < 1000 |
| CC(C)Cn1c(=O)c(C(=O)NC2CC2)c(O)n2nc(Br)cc12 [Synthesis Example 22, 2-Bromo-N-cyclopropyl-7-hydroxy-4-isobutyl-5-oxo-4,5-dihydropyrazolo[1,5-a]pyrimidine-6-carboxamide] | < 1000 |
| CC(C)Cn1c(=O)c(C(=O)NC2CC2)c(O)n2nc(-c3cccnc3N)cc12 [Synthesis Example 24, 2-(2-Aminopyridin-3-yl)-N-cyclopropyl-7-hydroxy-4-isobutyl-5-oxo-4,5-dihydropyrazolo[1,5-a]pyrimidine-6-carboxamide] | < 1000 |
| CC(C)(C)Cn1c(=O)c(C(=O)NC2CCC2)c(O)n2nc(Br)cc12 [Synthesis Example 25, 2-Bromo-N-cyclobutyl-7-hydroxy-4-neopentyl-5-oxo-4,5-dihydropyrazolo[1,5-a]pyrimidine-6-carboxamide] | < 1000 |
| CC(C)(C)Cn1c(=O)c(C(=O)NC2CCC2)c(O)n2nc(Nc3cnccn3)cc12 [Synthesis Example 26, N-Cyclobutyl-7-hydroxy-4-neopentyl-5-oxo-2-(pyrazin-2-ylamino)-4,5-dihydropyrazolo[1,5-a]pyrimidine-6-carboxamide] | < 1000 |
